Assay results as given in US10654834B2 (Venenum Biodesign, LLC, priority 2016, dated 2020).

Experiments:
human TGR5 receptor = biological target: T1, human TGR5 receptor (Homo sapiens, UniProt Q8TDU6); test: Human TGR5 cAMP production assay (hTGR5-CHO cells, DiscoveRx cAMP XS+ kit); format: cell-based; conditions: luminescent cAMP assay, read-out: Human TGR5 Lum. cAMP Activity (EC50)
T1 construct: host or cells: CHO-K1 (hTGR5-CHO)
T1 sequence (Q8TDU6 1-330): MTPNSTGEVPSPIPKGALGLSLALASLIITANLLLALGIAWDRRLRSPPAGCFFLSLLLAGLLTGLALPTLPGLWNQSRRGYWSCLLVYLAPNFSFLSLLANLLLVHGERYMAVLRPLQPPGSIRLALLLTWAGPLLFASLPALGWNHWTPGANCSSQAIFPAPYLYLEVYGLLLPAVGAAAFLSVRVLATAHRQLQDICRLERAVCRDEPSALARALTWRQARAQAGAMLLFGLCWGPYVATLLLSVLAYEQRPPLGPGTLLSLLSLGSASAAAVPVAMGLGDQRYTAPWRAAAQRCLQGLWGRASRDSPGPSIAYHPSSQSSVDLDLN
Summary of the method: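 CHO-K1 cells stably expressing hTGR5, in PBS with IBMX and cAMP antibody, treated with half-log compound dilutions for 1 h at room temperature. cAMP measured by enzyme-fragment complementation luminescence after overnight detection; EC50 values reported.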

mouse TGR5 receptor = biological target: T2, mouse TGR5 receptor (Mus musculus, UniProt Q80SS6); test: Mouse TGR5 HTRF cAMP production assay (HEK293-EBNA cells, Cisbio cAMP HiRange kit); format: cell-based; conditions: HEK293-EBNA cells overexpressing mouse TGR5, HTRF cAMP assay
T2 construct: host or cells: HEK293-EBNA (293 c18, ATCC CRL10852)
T2 sequence (Q80SS6 1-329): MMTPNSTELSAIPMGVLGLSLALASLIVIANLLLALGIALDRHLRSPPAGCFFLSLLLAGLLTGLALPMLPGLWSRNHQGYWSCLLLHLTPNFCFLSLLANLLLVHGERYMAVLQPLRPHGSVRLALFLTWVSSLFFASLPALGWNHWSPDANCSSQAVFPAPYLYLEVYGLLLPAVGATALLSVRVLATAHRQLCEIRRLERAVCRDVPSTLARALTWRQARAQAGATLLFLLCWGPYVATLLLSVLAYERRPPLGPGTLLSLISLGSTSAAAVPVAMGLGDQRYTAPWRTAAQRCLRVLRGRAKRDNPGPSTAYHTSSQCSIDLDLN
Summary of the method: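 HEK293-EBNA cells stably expressing mouse TGR5 (episomal vector) were suspended in serum-free DMEM with 500 μM IBMX and exposed to 12-point half-log compound dilutions for 1 h at room temperature. cAMP was detected by HTRF (d2-cAMP/anti-cAMP cryptate, 1 h, room temperature), giving EC50 from duplicates.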

EC50 (human TGR5 receptor) [nM]	EC50 (mouse TGR5 receptor) [nM]	SMILES
100 to 999	< 100	N#Cc1ccc(CCNC(=O)[C@@H]2CCCN2c2cc(-c3ccc(CCNC(=O)NCCS(=O)(=O)O)cc3)nc(C(F)(F)F)n2)cc1 [Compound 194, (S)-2-(3-(4-(6-(2-((4-cyanophenethyl)carbamoyl)pyrrolidin-1-yl)-2-(trifluoromethyl)pyrimidin-4-yl)phenethyl)ureido)ethanesulfonic acid]
< 100	< 100	N#Cc1ccc(CCNC(=O)[C@@H]2CCCN2c2cc(N3CCC(CCNC(=O)N[C@H](CC(=O)O)C(=O)O)CC3)nc(C(F)(F)F)n2)cc1 [Compound 82, (R)-2-(3-(2-(1-(6-((S)-2-((4-cyanophenethyl)carbamoyl)pyrrolidin-1-yl)-2-(trifluoromethyl)pyrimidin-4-yl)piperidin-4-yl)ethyl)ureido)succinic acid]
100 to 999	< 100	N#Cc1ccc(CCNC(=O)[C@@H]2CCCN2c2cc(N3CCC(CC(=O)O)CC3)nc(C(F)(F)F)n2)cc1 [Compound 27]
< 100	< 100	N#Cc1ccc(CCNC(=O)[C@@H]2CCCN2c2cc(N3CCC(CCCC(=O)NCCNc4nccc(C(=O)O)n4)CC3)nc(C(F)(F)F)n2)cc1 [Compound 102, (S)-2-((2-(4-(1-(6-(2-((4-cyanophenethyl)carbamoyl)pyrrolidin-1-yl)-2-(trifluoromethyl)pyrimidin-4-yl)piperidin-4-yl)butanamido)ethyl)amino) pyrimidine-4-carboxylic acid]
100 to 999	100 to 999	Cc1ccsc1-c1cc(N2CCC[C@H]2C(=O)NCCc2ccc(C#N)cc2)nc(C(F)(F)F)n1 [Compound 172, (S)-N-(4-cyanophenethyl)-1-(6-(3-methylthiophen-2-yl)-2-(trifluoromethyl)pyrimidin-4-yl)pyrrolidine-2-carboxamide]
< 100	< 100	COCCC1CCN(c2cc(N3CCC[C@H]3C(=O)NCCc3ccc(C#N)cc3)nc(C(F)(F)F)n2)CC1 [Compound 25]
< 100	< 100	N=C(N)N1CCC(C2CCN(c3cc(N4CC[C@H]4C(=O)NCCc4ccc(C(F)(F)F)cc4)nc(C(F)(F)F)n3)CC2)CC1 [Compound 289, (S)-1-(6-(1′-carbamimidoyl-[4,4′-bipiperidin]-1-yl)-2-(trifluoromethyl)pyrimidin-4-yl)-N-(4-(trifluoromethyl)phenethyl)-azetidine-2-carboxamide]
< 100	< 100	COC(=O)[C@@H](N)CCCCNC(=O)CCCC1CCN(c2cc(N3CCC[C@H]3C(=O)NCCc3ccc(C#N)cc3)nc(C(F)(F)F)n2)CC1 [Compound 71, (S)-methyl 2-amino-6-(4-(1-(6-((S)-2-((4-cyanophenethyl)carbamoyl)-pyrrolidin-1-yl)-2-(trifluoromethyl)-pyrimidin-4-yl)piperidin-4-yl)butanamido)hexanoate]
100 to 999	1000 to 30000	Cc1nc(N2CCC(CO)CC2)cc(N2CCC[C@H]2C(=O)NCCc2ccc(C#N)cc2)n1 [Compound 36]
1000 to 30000	> 30000	N#Cc1ccc(CCNC(=O)[C@@H]2CCCN2c2cc(C(F)(F)F)cc(N3CCC(CO)CC3)n2)cc1 [Compound 37]
100 to 999	< 100	N#Cc1ccc(CCNC(=O)[C@@H]2CCCN2c2cc(-c3ccc(CNC(=O)NCCCS(=O)(=O)O)cc3)nc(C(F)(F)F)n2)cc1 [Compound 193, (S)-3-(3-(4-(6-(2-((4-cyanophenethyl)carbamoyl)pyrrolidin-1-yl)-2-(trifluoromethyl)pyrimidin-4-yl)benzyl)ureido)propane-1-sulfonic acid]
100 to 999	< 100	N#Cc1ccc(CCNC(=O)[C@@H]2CCCN2c2cc(-c3ccc(CNC(=O)NCS(=O)(=O)O)cc3)nc(C(F)(F)F)n2)cc1 [Compound 192, (S)-(3-(4-(6-(2-((4-cyanophenethyl)carbamoyl)pyrrolidin-1-yl)-2-(trifluoromethyl)pyrimidin-4-yl)benzyl)ureido)methanesulfonic acid]
1000 to 30000	100 to 999	N#Cc1ccc(CCNC(=O)[C@@H]2CCCN2c2cc(-c3ccc(CN4CCNCC4)cc3)nc(C(F)(F)F)n2)cc1 [Compound 187, (S)-N-(4-cyanophenethyl)-1-(6-(4-(piperazin-1-ylmethyl)phenyl)-2-(trifluoromethyl)pyrimidin-4-yl)pyrrolidine-2-carboxamide]
< 100	< 100	N#Cc1ccc(CCNC(=O)[C@@H]2CCCN2c2cc(N3CCC(CCCC(=O)NCCNC(=O)CS(=O)(=O)O)CC3)nc(C(F)(F)F)n2)cc1 [Compound 124, (S)-2-((2-(4-(1-(6-(2-((4-cyanophenethyl)carbamoyl)pyrrolidin-1-yl)-2-(trifluoromethyl)pyrimidin-4-yl)piperidin-4-yl)butanamido)-ethyl)amino)-2-oxoethanesulfonic acid]
100 to 999	100 to 999	N#Cc1ccc(CCNC(=O)[C@@H]2CCCN2c2cc(-c3ccc(CCN)cc3)nc(C(F)(F)F)n2)cc1 [Compound 184, (S)-1-(6-(4-(2-aminoethyl)phenyl)-2-(trifluoromethyl)pyrimidin-4-yl)-N-(4-cyanophenethyl)pyrrolidine-2-carboxamide]
< 100	< 100	CN(CCS(=O)(=O)O)C(=O)CCC1CCN(c2cc(N3CC[C@H]3C(=O)NCCc3ccc(C(F)(F)F)cc3)nc(C(F)(F)F)n2)CC1 [Compound 252, (S)-2-(N-methyl-3-(1-(2-(trifluoromethyl)-6-(2-((4-(trifluoromethyl)phenethyl)carbamoyl)azetidin-1-yl)pyrimidin-4-yl)piperidin-4-yl)propanamido)ethanesulfonic acid]
< 100	< 100	N#Cc1ccc(CCNC(=O)[C@@H]2CCCN(c3cc(N4CCC(CCN)CC4)nc(C(F)(F)F)n3)C2)cc1 [Compound 345, (R)-1-(6-(4-(2-aminoethyl)piperidin-1-yl)-2-(trifluoromethyl)pyrimidin-4-yl)-N-(4-cyanophenethyl)piperidine-3-carboxamide]
